Counter-ions that a name gives are not always drawn. Some results are limits rather than exact numbers.

The target of this assay is T1, CYP11A1 (Homo sapiens, UniProt P05108).
T1 construct: human H295R adrenocortical carcinoma cell line was used as source of enzyme; endogenous in cells; host or cells: H295R human adrenocortical carcinoma cells
T1 sequence (P05108 40-521): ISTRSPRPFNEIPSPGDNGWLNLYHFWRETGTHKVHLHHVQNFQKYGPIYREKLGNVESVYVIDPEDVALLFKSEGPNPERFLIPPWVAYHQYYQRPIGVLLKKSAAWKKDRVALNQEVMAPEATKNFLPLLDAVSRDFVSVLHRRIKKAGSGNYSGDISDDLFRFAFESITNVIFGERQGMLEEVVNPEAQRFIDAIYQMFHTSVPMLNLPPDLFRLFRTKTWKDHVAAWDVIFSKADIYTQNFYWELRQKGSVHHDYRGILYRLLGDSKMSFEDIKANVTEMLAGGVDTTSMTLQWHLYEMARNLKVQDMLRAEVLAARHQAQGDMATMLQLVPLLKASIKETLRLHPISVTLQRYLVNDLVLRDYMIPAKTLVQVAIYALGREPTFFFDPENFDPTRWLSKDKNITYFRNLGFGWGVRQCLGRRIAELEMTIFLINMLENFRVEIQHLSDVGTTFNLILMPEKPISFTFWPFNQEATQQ
Nature of the assay: CYP11A1 inhibition: modified isocaproic acid release assay (IARA) in H295R cells. The assay is classed as cell-based. To be noted: human H295R adrenocortical carcinoma cells treated three days, 3 nM [24,25-3H]-labelled cholesterol, 1% DMSO, 10 concentrations in duplicates; read-out: IC50 of the test compounds on CYP11A1 inhibition. In outline: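 H295R adrenocortical cells treated three days with test compounds at 10 concentrations in duplicate plus 3 nM [24,25-3H]-cholesterol, 1% DMSO final. Released radiolabelled isocaproic acid measured by scintillation counting after dextran-coated charcoal extraction; IC50 determined.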
For `C=Cc1ccc(COc2coc(CN3Cc4ccccc4C3)cc2=O)cc1` [Compound 144, 2-(Isoindolin-2-ylmethyl)-5-((4-vinylbenzyl)oxy)-4H-pyran-4-one], the IC50 was in the range of 301 to 2000 nM.
`CC1c2ccccc2CCN1Cc1cc(=O)c(OCc2ccc(C(=O)N3CCCC3)cc2)co1` (stereo not drawn) [Compound 125, 2-((1-Methyl-3,4-dihydroisoquinolin-2(1H)-yl)methyl)-5-((4-(pyrrolidine-1-carbonyl)benzyl)oxy)-4H-pyran-4-one]: the IC50 was 301 to 2000 nM.
The same measure for `CS(=O)(=O)N1[C@@H]2CC[C@H]1CC(COc1coc(CN3Cc4ccccc4C3)cc1=O)C2` (stereo partly drawn) [Compound 177, 2-(Isoindolin-2-ylmethyl)-5-(((1R,5S)-8-(methylsulfonyl)-8-azabicyclo[3.2.1]-octan-3-yl)methoxy)-4H-pyran-4-one]: 150 to 300 nM.
Regarding `CS(=O)(=O)c1ccc(COc2coc(CN3Cc4cc(F)c(F)cc4C3)cc2=O)cc1` [Compound 26, 2-((5,6-Difluoroisoindolin-2-yl)methyl)-5-((4-(methylsulfonyl)benzyl)oxy)-4H-pyran-4-one], the 50% inhibitory concentration (IC50) was in the range of 150 to 300 nM.
The same measure for `CCCCNC(=O)c1ccc(COc2coc(CN3Cc4ccccc4C3)cc2=O)cc1` [Compound 169, N-Butyl-4-(((6-(isoindolin-2-ylmethyl)-4-oxo-4H-pyran-3-yl)oxy)methyl)-benzamide]: 150 to 300 nM.
The same measure for `O=c1cc(CN2Cc3ccccc3C2)occ1OCC1CCS(=O)(=O)CC1` [Compound 35, 5-((1,1-Dioxidotetrahydro-2H-thiopyran-4-yl)methoxy)-2-(isoindolin-2-yl-methyl)-4H-pyran-4-one]: 301 to 2000 nM; for `C[S@@](=N)(=O)c1ccc(COc2coc(CN3Cc4ccc(C(F)(F)F)cc4C3)cc2=O)cc1` [Compound 286, 5-((4-(R-Methylsulfonimidoyl)-benzyl)oxy)-2-((5-(trifluoromethyl)isoindolin-2-yl)methyl)-4H-pyran-4-one]: under 150 nM.
To `CS(=O)(=O)c1ccc(COc2coc(CN3Cc4ccccc4C3)cc2=O)c(Cl)c1` [Compound 16, 5-((2-Chloro-4-(methylsulfonyl)benzyl)oxy)-2-(isoindolin-2-ylmethyl)-4H-pyran-4-one] belongs 301 to 2000 nM; to `O=C(c1ccc(COc2coc(CN3Cc4ccc(Cl)cc4C3)cc2=O)cc1)N1CC(F)(F)C1` [Compound 163, 2-((5-Chloroisoindolin-2-yl)methyl)-5-((4-(3,3-difluoroazetidine-1-carbonyl)-benzyl)oxy)-4H-pyran-4-one], 150 to 300 nM.
On to `CC(C)(O)Cc1ccc(COc2coc(CN3CCc4ccccc4C3)cc2=O)cc1` [Compound 46, 2-((3,4-Dihydroisoquinolin-2(1H)-yl)methyl)-5-((4-(2-hydroxy-2-methyl-propyl)benzyl)oxy)-4H-pyran-4-one], for which the IC50 is 150 to 300 nM.
To `NC(=O)c1ccc(COc2coc(CN3Cc4ccccc4C3)cc2=O)cc1` [Compound 57, 4-(((6-(Isoindolin-2-ylmethyl)-4-oxo-4H-pyran-3-yl)oxy)methyl)benzamide] belongs 301 to 2000 nM.
With `CCCCCCNC(=O)c1ccc(COc2coc(CN3Cc4ccccc4C3)cc2=O)cc1` [Compound 142, N-Hexyl-4-(((6-(isoindolin-2-ylmethyl)-4-oxo-4H-pyran-3-yl)oxy)methyl)-benzamide], the IC50 lay in the range of 150 to 300 nM.
The same measure for `CS(=O)(=O)c1ccc(COc2coc(CN3Cc4ccccc4C3)cc2=O)c(F)c1` [Compound 34, 5-((2-Fluoro-4-(methylsulfonyl)benzyl)oxy)-2-(isoindolin-2-ylmethyl)-4H-pyran-4-one]: 150 to 300 nM; for `O=C(c1ccc(COc2coc(CN3Cc4ccc(Br)cc4C3)cc2=O)cc1)N1CCCC1` [Compound 130, 2-((5-Bromoisoindolin-2-yl)methyl)-5-((4-(pyrrolidine-1-carbonyl)benzyl)oxy)-4H-pyran-4-one]: under 150 nM; for `CN(C)C(=O)/C=C/c1ccc(COc2coc(CN3Cc4ccccc4C3)cc2=O)cc1` [Compound 146, (E)-3-(4-(((6-(Isoindolin-2-ylmethyl)-4-oxo-4H-pyran-3-yl)oxy)methyl)phenyl)-N,N-dimethylacrylamide]: under 150 nM.
The same measure for `O=c1cc(CN2Cc3ccccc3C2)occ1OCc1ccc(Br)cc1` [Compound 58, 5-((4-Bromobenzyl)oxy)-2-(isoindolin-2-ylmethyl)-4H-pyran-4-one]: 301 to 2000 nM.
To `COc1ccc(COc2coc(CN3Cc4ccccc4C3)cc2=O)cn1` [Compound 76, 2-(Isoindolin-2-ylmethyl)-5-((6-methoxypyridin-3-yl)methoxy)-4H-pyran-4-one] belongs 301 to 2000 nM; to `CS(=O)(=O)N1CCC(COc2coc(CN3Cc4ccc(OC(F)(F)F)cc4C3)cc2=O)CC1` [Compound 205, 5-((1-(Methylsulfonyl)piperidin-4-yl)methoxy)-2-((5-(trifluoromethoxy)-isoindolin-2-yl)methyl)-4H-pyran-4-one], under 150 nM; to `CS(=O)(=O)N1CCC(COc2coc(CN3CCc4ccccc4C3)cc2=O)CC1` [Compound 179, 2-((3,4-Dihydroisoquinolin-2(1H)-yl)methyl)-5-((1-(methylsulfonyl)piperidin-4-yl)methoxy)-4H-pyran-4-one], 301 to 2000 nM.
`CS(=O)(=O)CC(=O)N1CCC(COc2coc(CN3Cc4ccccc4C3)cc2=O)CC1` [Compound 238, 2-(Isoindolin-2-ylmethyl)-5-((1-(2-(methylsulfonyl)acetyl)piperidin-4-yl)-methoxy)-4H-pyran-4-one]: the IC50 is under 150 nM.
To `CCS(=N)(=O)c1ccc(COc2coc(CN3Cc4ccc(F)cc4C3)cc2=O)cc1` (stereo not drawn) [Compound 102, 5-((4-(Ethylsulfonimidoyl)benzyl)oxy)-2-((5-fluoroisoindolin-2-yl)methyl)-4H-pyran-4-one] belongs 150 to 300 nM; to `O=c1cc(CN2Cc3ccccc3C2)occ1OCc1ccc(C2(O)COC2)cc1` [Compound 114, 5-((4-(3-Hydroxyoxetan-3-yl)benzyl)oxy)-2-(isoindolin-2-ylmethyl)-4H-pyran-4-one], under 150 nM; to `N#Cc1ccc(COc2coc(CN3Cc4ccc(Br)cc4C3)cc2=O)cc1` [Compound 278, 4-((6-((5-Bromoisoindolin-2-yl)methyl)-4-oxo-4H-pyran-3-yloxy)methyl)benzonitrile], under 150 nM.
As for `O=CN1CCC(COc2coc(CN3Cc4ccccc4C3)cc2=O)CC1` [Compound 284, 4-(((6-(Isoindolin-2-ylmethyl)-4-oxo-4H-pyran-3-yl)oxy)methyl)piperidine-1-carbaldehyde, HCl], the IC50 was in the range of 150 to 300 nM.
The same measure for `CS(=O)(=O)c1ccc(COc2coc(CN3Cc4cccc(Cl)c4C3)cc2=O)cc1` [Compound 281, 2-((4-Chloroisoindolin-2-yl)methyl)-5-((4-(methylsulfonyl)benzyl)oxy)-4H-pyran-4-one]: 301 to 2000 nM; for `CN(C)C(=O)c1ccc(COc2coc(CN3CCc4ccccc4C3)cc2=O)cc1` [Compound 119, 4-(((6-((3,4-Dihydroisoquinolin-2(1H)-yl)methyl)-4-oxo-4H-pyran-3-yl)oxy)-methyl)-N,N-dimethylbenzamide]: 301 to 2000 nM.
To `CNC(=O)C1CCC(COc2coc(CN3Cc4ccccc4C3)cc2=O)CC1` (stereo not drawn) [Compound 227, 4-(((6-(Isoindolin-2-ylmethyl)-4-oxo-4H-pyran-3-yl)oxy)methyl)-N-methylcyclo-hexanecarboxamide] belongs 150 to 300 nM; to `O=C(c1ccc(COc2coc(CN3Cc4ccccc4C3)cc2=O)cc1)N1CCC1` [Compound 129, 5-((4-(Azetidine-1-carbonyl)benzyl)oxy)-2-(isoindolin-2-ylmethyl)-4H-pyran-4-one], under 150 nM.
With `Cc1ccc(COc2coc(CN3CCc4ccccc4C3)cc2=O)cc1` [Compound 42, 2-((3,4-Dihydroisoquinolin-2(1H)-yl)methyl)-5-((4-methylbenzyl)oxy)-4H-pyran-4-one], the IC50 lay within 301 to 2000 nM.
For the molecule `CCOC(=O)c1cnn(-c2ccc(COc3coc(CN4Cc5ccccc5C4)cc3=O)cc2)c1` [Compound 40, Ethyl 1-(4-(((6-(isoindolin-2-ylmethyl)-4-oxo-4H-pyran-3-yl)oxy)methyl)phenyl)-1H-pyrazole-4-carboxylate], the IC50 is 301 to 2000 nM.
For the molecule `Cn1nccc1S(=O)(=O)N1CCC(COc2coc(CN3Cc4ccccc4C3)cc2=O)CC1` [Compound 255, 2-(Isoindolin-2-ylmethyl)-5-((1-((1-methyl-1H-pyrazol-5-yl)sulfonyl)piperidin-4-yl)methoxy)-4H-pyran-4-one], the IC50 was under 150 nM.
To `CS(=O)(=O)N1CCC(F)(COc2coc(CN3Cc4ccccc4C3)cc2=O)CC1` [Compound 235, 5-((4-Fluoro-1-(methylsulfonyl)piperidin-4-yl)methoxy)-2-(isoindolin-2-yl-methyl)-4H-pyran-4-one] belongs 150 to 300 nM.
To `O=c1cc(CN2Cc3ccccc3C2)occ1OCc1ccc(S(=O)(=O)N2CCCCC2)cc1` [Compound 7, 2-(Isoindolin-2-ylmethyl)-5-((4-(piperidin-1-ylsulfonyl)benzyl)oxy)-4H-pyran-4-one] belongs 150 to 300 nM.

Broadly, the IC50 is the concentration that gives 50% inhibition.
